Results from US20020177526A1, “Insecticidal seed coating” (priority 1996, published 2002).

What was measured:
corn rootworm larvae [1] = experiment: Corn rootworm greenhouse bioassay (2 gal pot); assay type: in vivo; settings: Iowa scale 1-6
Description: (§1) Hybrid corn seeds with and without an insecticidal coating are planted in Nebraska, Iowa, Minnesota, Wisconsin and Illinois to determine the efficacy of various coated seed treatments in standard tests. All seeds contain a Captan pretreatment whether or not a coating is applied. Additionally, an overcoat layer is applied to all coated seed which comprises the coating described in Example 2. Banded granular insecticides are applied at the manufactures label rates using granular insecticide applicators. Plot size for each treatment is two ten foot rows spaced 30 inches apart with four replications of each treatment at each location. Non-diaposing 1st instar Western Corn Rootworm larvae are side dressed on both sides of the corn plants in the row at a rate of 800 eggs per foot of row. Application of the insect larvae is made when the corn seedlings are approximately at the two leaf stage. The placement of the larvae is approximately two inches to the side of the corn plants and two inches below the soil surface. Plots are maintained with normal cultural practices until the corn plants reach the flowering stage. At late brown silk stage, 10 sequential roots from each plot are obtained. The corn stalks are cut at approximately 12 inches above the soil line. Each corn root is washed and after washing the roots are rated on a scale of 1-6 using the Iowa Root Rating Method developed at Iowa State University (Hills and Peters, 1971) and used commonly throughout the corn belt. In the rating, 1=no damage or only a few minor feeding scars; 2=feeding scars evident but no roots eaten off to within 1½ inch of the plant; 3=several roots eaten off to within 1½ inch of the plant but never the equivalent of an entire node of roots is destroyed; 4=one root node completely destroyed; 5=two root nodes completely destroyed and 6=three or more root nodes destroyed. A destroyed root is defined as a root that has been pruned to within 1½ inch of the base. […] In addition, a growth chamber and a greenhouse bioassay was used to determine the effect of insecticidal seed coating on corn rootworm control. For growth chamber assay, corn seed was planted in a 16 oz cup with garden Jiffymix, and allowed to grow for two weeks. Twenty neonate corn rootworm larvae are placed in the Jiffymix near corn roots and allowed to feed for approximately 2 weeks. The larvae are then screened out and the % mortality of the larvae is determined. Each corn root is washed and after washing the roots are rated on a scale of 1-6 using the Iowa Root Rating Method developed at Iowa State University (Hills and Peters, 1971). Some of the results are indicated below in Table 3. The greenhouse assay use 2 gallon pot with 20 mesh corn field soil. Forty corn rootworm larvae are placed in each pot when corn plant was at 4 to 5-leaf stage, and allowed to feed for 2 to 3 weeks. Each corn root is washed and after washing the roots are rated on a scale of 1-6 using the Iowa Root Rating Method developed at Iowa State University (Hills and Peters, 1971). Some of the results are indicated below in Table 3.
(§2) Maize seed is treated as described in Examples 1 and 2. A combination of methyl cellulose and polyvinyl alcohol is used as a binder and Celite 266 is used as filler for insecticide solution, which contains the compound of formula II as the insecticide. Bioassay methods are as described in Example 4. Root rating was based on the Iowa State 1-6 scale.

corn rootworm larvae [2] = experiment: Corn rootworm growth chamber bioassay (16 oz cup); assay type: in vivo; settings: Iowa scale 1-6
Description: as §1, §2

Structure (SMILES)	Greenhouse (2 gal pot) Root Rating (corn rootworm larvae [1]; 1.0 mg/seed)	Growth Chamber (16 oz cup) Root Rating (corn rootworm larvae [2]; 1.0 mg/seed)	Greenhouse (2 gal pot) Root Rating (corn rootworm larvae [1]; 0.6 mg/seed)	Greenhouse (2 gal pot) Root Rating (corn rootworm larvae [1]; 1.2 mg/seed)	Greenhouse (2 gal pot) Root Rating (corn rootworm larvae [1]; 1.5 mg/seed)	Greenhouse (2 gal pot) Root Rating (corn rootworm larvae [1]; 2.0 mg/seed)	Growth Chamber (16 oz cup) Root Rating (corn rootworm larvae [2]; 0.01 mg/seed (combination: plus Raze 0.13 mg/seed))	Growth Chamber (16 oz cup) Root Rating (corn rootworm larvae [2]; 0.03 mg/seed)	Growth Chamber (16 oz cup) Root Rating (corn rootworm larvae [2]; 0.3 mg/seed (combination: plus Raze 0.13 mg/seed))	Growth Chamber (16 oz cup) Root Rating (corn rootworm larvae [2]; 0.6 mg/seed)	Growth Chamber (16 oz cup) Root Rating (corn rootworm larvae [2]; 0.8 mg/seed)
Cc1c(F)c(F)c(COC(=O)[C@@H]2[C@H](/C=C(\Cl)C(F)(F)F)C2(C)C)c(F)c1F [Tefluthrin 50%, tefluthrin, reference compound]	3.52	2.30									
CN1COCN(Cc2cnc(Cl)s2)/C1=N/[N+](=O)[O-] [Formula II]		2.10	2.73	3.08	2.96	2.90	5.30	4.30	2.70	2.10	2.30
